Values quoted from earlier work in patent EP2545940A9, “Parenteral compositions” (hameln rds gmbh, priority 2011, dated 2013).
Read-outs that look alike come from different tables or passages of the source.

Details: 25°C

Paracalcin (cosolvent: Ethanol 0.00, Propylene glycol 0.302, Water 0.698): 0.58 µg/mL | Paracalcin (cosolvent: Ethanol 0.00, Propylene glycol 0.506, Water 0.494): 14.21 µg/mL | Paracalcin (cosolvent: Ethanol 0.100, Propylene glycol 0.257, Water 0.643): 2.88 µg/mL | Paracalcin (cosolvent: Ethanol 0.199, Propylene glycol 0.207, Water 0.594): 15.94 µg/mL | Paracalcin (cosolvent: Ethanol 0.201, Propylene glycol 0.308, Water 0.491): 72.90 µg/mL | Paracalcin (cosolvent: Ethanol 0.299, Propylene glycol 0.00, Water 0.701): 6.82 µg/mL | Paracalcin (cosolvent: Ethanol 0.347, Propylene glycol 0.102, Water 0.551): 119.37 µg/mL | Paracalcin (cosolvent: Ethanol 0.498, Propylene glycol 0.00, Water 0.502): 601.63 µg/mL
SMILES: C[C@H](/C=C/[C@H](C)C(C)(C)O)[C@H]1CC[C@H]2/C(=C/C=C3C[C@@H](O)C[C@H](O)C3)CCC[C@]12C [Paracalcin, (1 R, 3R, 7E, 17β) -17 - [(1 R, 2E, 4S)-5-Hydroxy-1 ,4,5-trimethylhex-2-en-1-yl] -9,10-secoestra-5,7-Dien-1 ,3-diol]
